In patent publication US20120035187A1 (priority 2009, published 2012):
Read-outs that look alike come from different tables or passages of the source. Marks after values point to notes of the source that are not given here.

Key:
brain ischemia rat = assay: Brain ischemia (cerebral infarction model) rat: size/volume of cerebral infarction region (TTC); type: in vivo; details: for Size of cerebral infarcttion region (%): brain ischemia rats, 100 p g/kg body weight via caudal vein twice, relative to control group 1 = 100%; for increment of the volume of cerebral infarction region (in words): Experiment 13, cerebral-infarction-model rat, administered through caudal vein; for Volume of cerebral infarction region (mm^3): embolus rat, caudal vein
human amyloid β peptide = biological target: T1, human amyloid β peptide (Homo sapiens, UniProt P05067); assay: Agglutination of amyloid β peptide, thioflavine T method; type: biochemical; details: 45 μl of 200 nM test sample solution + 15 μl amyloid β peptide solution, 37° C., six days, thioflavine T fluorescence; for inhibition at 0.2 µM: read-out: Inhibition rate (%) of agglutination of amyloid β peptide
T1 construct: purchased AnaSpec Inc., CA, USA
Method: The filtrate was made into a test sample solution by adjusting the concentration to 200 nM using Tris-HCl buffer.
The agglutination of amyloid β peptide was measured by a method using thioflavine T (see Hilal A. Lashuel et al., Journal of Biological Chemistry, Vol. 277, No. 45, pp. 42881-42890 (2002)). Thioflavine T binds to […] structure of agglutinated amyloid β peptide and produces fluorescence. The amount of the fluorescence was determined using a fluorometric plate reader and used as an index of the agglutination of amyloid β peptide. When the agglutination of amyloid β peptide is inhibited by the test sample, fluorescence of Thioflavine T is decreased. The effects of the test samples on the agglutination of amyloid β peptide were investigated by the method. A human amyloid β peptide, having the amino acid sequence of SEQ ID NO:2 consisting of 40 amino acids, commercialized by AnaSpec Inc., CA, USA, was dissolved in sterilized distilled water to give a concentration of 400 μM for use. Test samples were diluted with Tris-HCl buffer. In a reaction vessel, 15 μl of […] admixed with 45 μl of a 200 nM test sample solution and allowed to react at 37° C. for six days. After the reaction, 50 μl of the reaction mixture was withdrawn, admixed with 450 μl of a 10 μM Thioflavine T solution, and after 30 minutes, the resulting fluorescence was measured using a fluorometer (excitation wavelength: 450 nm, […]: 482 nm). The fluorescent intensity of Thioflavine T only was regarded as 0%, and that of the solution, prepared by mixing 15 μl of a […] amyloid β peptide solution and 45 μl of Tris-HCl buffer and allowing to react at 37° C. for six days, was regarded as 100%. Inhibition rate (%) of the agglutination of amyloid β peptide was determined by the steps of measuring the relative fluorescence intensity in the case of using each test sample solution for the reaction, and subtracting the measured value from 100%.

microglia = assay: NO production from microglia in the presence of LPS; type: cell-based, rat; details: concrete data not shown
APP Tg mouse = assay: Passive avoidance test, APP transgenic mouse; type: in vivo; details: for Passive avoidance reaction: intraperitoneal, five times a week for 12 weeks
[1] = system: ICR mice injected with amyloid β fragment; assay: Passive avoidance test, mouse injected with amyloid β fragment; type: in vivo; details: for passive avoidance test (in words): mice injected with amyloid β fragment, vs amyloid β fragment alone; for Passive avoidance reaction: mouse administered with amyloid β fragment
Method: One hundred of ICR mice (male, five weeks of age, body weight of 25 to 30 g, commercialized by Charles Liver Laboratories Japan Inc., Kanagawa, Japan) were randomly divided into 10 groups, each consisting 10 heads, and raised separately until the experiment was terminated. Mice, which had been anesthetized with chloral hydrate (administered into the abdominal cavity in an amount of 350 mg/kg body weight, commercialized by SIGMA Corporation, Tokyo, Japan), were fixed at their dorsal decubitis parts, incised along their medial heads, and after confirming born suture, 9 nmol/6 μl/mouse of a solution of amyloid β fragment (β-Amyloid25-35), represented by amino acid sequence of SEQ ID No.: 1, was injected into their brain ventricles by puncturing at 1.0-mm left side and 0.5-mm backside from bregmas with a depth of 3 mm (the administration method is referred to “Brain Research”, Vol. 706, pp. 181-193 (1996)). A micro syringe with an […] stainless needle (3 mm length) was used for injection. The injection site was determined by confirming the staining at right-and-left lateral ventricles of the frontal section, dorsal third ventricle, and ventral third ventricle by injecting an Evans' Blue solution (0.3 μg/0.3 μl) in place of the solution of amyloid β fragment. The scalps were sutured after injection, any one of the compounds was administered intraperitoneally once a day over 13 days, and the behavioral score was determined by the method described below.
The captioned test is the one for evaluating animals' avoidance behavior to the once experienced aversive stimulus (electric stimulus) as an index of memory. In this experiment, step-through test was selected as a passive avoidance test, which uses the nature of mouse who favors dark room. Using an apparatus having a bright room and a dark room connected via a door, a mouse was placed in the bright room, and measured a time required for moving into the dark room as an index of memory. The passive avoidance test was performed on 9 to 12 days after the injection of amyloid β fragment into the ventricle. On the 9th day after the administration, the mouse was placed in the bright room (1,000 lux, 30-cm in depth, 30-cm in width and 15-cm in height) for a minute, and then placed in the dark room (30-cm in depth, 30-cm in width and 15-cm in height) for two minutes to be acclimatized. On the 10th day after the administration, the mouse was further acclimatized similarly as above. On the 11th day after the administration, the mouse was placed in the center of the bright room, and when the mouse moved into the dark room, the door between the rooms was immediately closed and the electric stimulus (0.8 mA, for a second) was given to the mouse. After 24 hours (on the 12th day after the administration), the mouse was placed in the center of the bright room as had been placed in the previous day, and the time required for moving into the dark room was measured as a passive avoidance reaction. When the mouse memorized the aversive electric stimulus, the passive avoidance reaction was elongated.

[2] = 50 μg/kg body weight i.p. once a day
[3] = 500 μg/kg body weight i.p. once a day

T1 sequence (P05067 672-711): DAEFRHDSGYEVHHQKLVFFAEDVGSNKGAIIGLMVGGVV
Method for PC12-HS cells: The cells were cultured with a serum-free medium as a nutrition-starvation-condition. PC12-HS cells were subjected to tests after stock cultured cells thereof were thawed and cultured with a D-MEM medium supplemented with 10% by volume of fetal bovine serum (FBS). […] As a control, cells were cultured with a NK-4 free D-MEM medium and, similarly as above, cultured after the addition of an ALAMAR BLUE solution commercialized by Trek Diagnostic Systems Inc., Ohio, USA, and measured for fluorescent intensity for each well. Relative values for cells in each well were determined when the fluorescent intensity for control was regarded as 100%, and the data are also shown in Table 1 as survival percentages (%) of cells in each well.

Row | SMILES | Size of cerebral infarcttion region (%) (brain ischemia rat) | inhibition at 0.2 µM (human amyloid β peptide) [%] | suppressing NO production from microglia (microglia) | increment of the volume of cerebral infarction region (in words) (brain ischemia rat) | Volume of cerebral infarction region (mm^3) (brain ischemia rat; dose 100 μg per kg body weight) | passive avoidance test (in words) [1, 2] | passive avoidance test (in words) [1, 3] | Passive avoidance reaction ([1]; dose 50 μg/kg body weight) [s] | Passive avoidance reaction ([1]; dose 500 μg/kg body weight) [s] | other results
1 | CC[n+]1ccccc1/C=C/c1ccc(N(C)C)cc1 [NK-557] | 61.1 ± 14.2 | 95 | – | – | – | – | – | – | – | –
2 | CCN1/C(=C/C=C(/C=C/c2sc3ccccc3[n+]2CC)c2sc3ccccc3[n+]2CC)Sc2ccccc21.[I-].[I-] [NK-100] | 74.5 ± 11.4 | 99 | – | – | – | – | – | – | – | –
3 | CCN1C=CC(=CC=C(C=Cc2cc[n+](CC)c3ccccc23)c2cc[n+](CC)c3ccccc23)c2ccccc21.[I-].[I-] [NK-4] | 49.4 ± 5.1 | – | actions of suppressing NO production | significantly suppressed | 88 ± 18** mm^3 | significant improvement | significant improvement | 135 ± 24 | 164 ± 16 | Passive avoidance reaction (APP Tg mouse; dose 100 μg/kg body weight): 280 ± 20 s; Passive avoidance reaction (APP Tg mouse; dose 500 μg/kg body weight): 243 ± 25 s; passive avoidance test (in words) (APP Tg mouse; i.p. five times a week for 12 weeks): improved the dementia; Volume of cerebral infarction region (mm^3) (brain ischemia rat; dose 25 μg per kg body weight): 186 ± 21 mm^3; Volume of cerebral infarction region (mm^3) (brain ischemia rat; dose 50 μg per kg body weight): 107 ± 21* mm^3; Volume of cerebral infarction region (mm^3) (brain ischemia rat; dose 200 μg per kg body weight): 143 ± 26 mm^3; Volume of cerebral infarction region (mm^3) (brain ischemia rat; dose 300 μg per kg body weight): 176 ± 31 mm^3; Inhibition rate (%) of agglutination of amyloid β peptide (human amyloid β peptide): 73%; Survibal percentage of cells when admixed with cytotoxic factor (%) Nutrition starvation (PC12-HS cells; NK-4 500 ng/ml): 78 ** %; Survibal percentage of cells when admixed with cytotoxic factor (%) Nutrition starvation (PC12-HS cells; NK-4 5000 ng/ml): 64 ** %; concentration required for protection action against nutrition starvation (PC12-HS cells; PC12-HS cells): 500 ng/mL; Survibal percentage of cells when admixed with cytotoxic factor (%) Nutrition starvation (PC12-HS cells; PC12-HS cells, FBS-free medium, 3 days, NK-4 50 ng/ml, control free of cytotoxic factor = 100): 47%
4 | CCCCN1C=C/C(=C/C=C(/C=C/c2cc[n+](CCCC)c3ccccc23)c2cc[n+](CCCC)c3ccccc23)c2ccccc21 [NK-26] | – | – | actions of suppressing NO production | significantly suppressed | 169 ± 23 mm^3 | significant improvement | significant improvement | 160 ± 14 | 144 ± 13 | Volume of cerebral infarction region (mm^3) (brain ischemia rat; dose 1 μg per kg body weight): 194 ± 22 mm^3; Volume of cerebral infarction region (mm^3) (brain ischemia rat; dose 10 μg per kg body weight): 121 ± 22* mm^3; Passive avoidance reaction ([1]; dose 5 μg/kg body weight): 84 ± 25 s
5 | CCCN1C=CC(=CC=C(C=Cc2cc[n+](CCC)c3ccccc23)c2cc[n+](CCC)c3ccccc23)c2ccccc21.[I-].[I-] [NK-234] | – | – | actions of suppressing NO production | – | – | – | significant improvement | – | 166 ± 8 | –
